Type in all cases: physicochemical
Series [1] in a line: Fine particle fraction by Fast Screening Impactor (FSI), fluticasone propionate in HFO-1234ze(E) without ethanol. To be noted: HFO-1234ze(E) suspension 2 mg/mL, no ethanol. The procedure: A suspension of micronized fluticasone propionate was prepared in HFO-1234ze(E) with no additional excipients, including ethanol. Each suspension included an amount of fluticasone propionate (2 mg/mL) to provide a nominal dose of […]. Each suspension was filled into FEP coated canisters and crimped with a metering valve and tested with a KINDEVA actuator.
When tested with KINDEVA actuators with exit orifice diameters of 0.3 mm, 0.22 mm, and 0.18 mm using a Fast Screening Impactor (FSI), it was observed that corresponding FPF of 35%, 43%, and 50% were achieved.

The nature of series [2]: Saturated solubility of fluticasone propionate in HFO-1234ze(E) with ethanol. To be noted: saturated solubility in HFO-1234ze(E), no additional excipients; for solubility: HFO-1234ze(E) propellant with ethanol, organic solvent or mixture, thermodynamic from solid. The procedure:
The solubility of fluticasone propionate in each suspension was measured by content assay following filtration of the excess non-dissolved drug.

A short description of series [3]: Aerodynamic particle size measurement, fluticasone propionate in HFO-1234ze(E). Conditions: HFO-1234ze(E) suspension 2 mg/mL, 50-μL valve, 0.5 mm actuator. The procedure:
Suspensions of micronized fluticasone propionate were prepared in HFO-1234ze(E). The nominal concentration of fluticasone propionate in each suspension was 2 mg/mL. A first suspension included 0% ethanol. A second suspension included 2% ethanol by weight. A third suspension included 5% ethanol by weight. A fourth suspension included 10% ethanol by weight.
Each suspension was filled into an FEP-coated canister and fitted with a 50-μL valve. The suspensions were sonicated for 10 minutes to disperse the fluticasone propionate. The suspensions were tested using a KINDEVA actuator with a 0.5 mm exit orifice diameter.
For each suspension, FPM, median mass aerodynamic diameter (MMAD), FPF, metered dose (ex-valve), and delivered dose (ex-actuator) were measured.

The nature of series [4]: Mometasone solubility in HFO-1234ze(E) (Example 10).
The nature of series [5]: Saturated solubility, mometasone furoate in HFO-1234ze(E) (Example 11). The procedure: Suspensions of micronized mometasone furoate were prepared in HFO-1234ze(E). […]. A second suspension included 0.5% ethanol by weight. A third suspension included 1% ethanol by weight. A fourth suspension included 2% ethanol by weight.
Devices were prepared by weighing mometasone furoate in FEP coated canisters fitted with a 50-μL valve, a Mk6s actuator, and dose counter. The valve was crimped on, and the propellant was pressure filled through the valve. The units were sonicated for 10 minutes to fully disperse the mometasone furoate. Through life dosing was tested for each suspension 3 units with the Mk6s actuator having 0.5-mm exit orifice and 0.8-mm jet length. Saturated solubility was also measured for each suspension. The results are shown in Example 10.

The nature of series [6]: Delivered dose and fine particle mass, salbutamol sulfate in HFO-1234ze(E) with 5.0% or 15% ethanol. To be noted: HFO-1234ze(E) suspension 1.91 mg/mL, 63-μL APTAR, mean of triplicate. How it is done: Each suspension was filled into FEP coated canisters, crimped with a valve, and coupled to […] actuator for testing. Fine particle mass and delivered dose were measured for each suspension.

Series [7] is described as follows: Delivered dose and particle size measurement, salbutamol sulfate in HFO-1234ze(E). Conditions: HFO-1234ze(E) suspension 1.91 mg/mL, nominal 100 μg/actuation, 63-μL valve, 0.4 mm actuator. How it is done: A first suspension included no ethanol. […] A fifth suspension included 15% ethanol by weight. […] Each suspension was filled into FEP coated canisters, crimped with a 63-μL valve and tested with a […] actuator having an exit orifice diameter of 0.4 mm for testing. The fine particle mass (FPM), median mass aerodynamic diameter (MMAD), fine particle fraction (FPF), metered dose (ex-valve), and delivered dose (ex-act) were measured for each suspension.

Converted amounts (≈) assume the structure as drawn.

Consider `CCC(=O)O[C@]1(C(=O)SCF)[C@H](C)C[C@H]2[C@@H]3C[C@H](F)C4=CC(=O)C=C[C@]4(C)[C@@]3(F)[C@@H](O)C[C@@]21C` [fluticasone propionate], for which the FPF in series [1] (actuator exit orifice 0.18 mm) was 50%; in series [1] (actuator exit orifice 0.22 mm), 43%; in series [1] (actuator exit orifice 0.3 mm) it was 35%; in series [3] (ethanol 0% by weight), 60.6%; in series [3] (ethanol 2% by weight), 43.8%; in series [3] (ethanol 5% by weight), 28.9%. For the same molecule, in series [3] (ethanol 10% by weight), the FPF was 19.6%. The solubility worked out at 3.2 µg/mL (≈ 6.39 µM) in series [2] (ethanol 0% by weight), 30.3 µg/mL (≈ 60.5 µM) in series [2] (ethanol 2% by weight) and 135 µg/mL (≈ 269 µM) in series [2] (ethanol 5% by weight). Besides, the “Mean fluticasone propionate solubility” value stood at 12.4 µg/mL in series [2] (ethanol 1% by weight) and 367.5 µg/mL in series [2] (ethanol 10% by weight). In addition, the FPM amounted to 5.3 μg/actuation in series [3] (ethanol 0% by weight), 30.0 μg/actuation in series [3] (ethanol 2% by weight), 27.9 μg/actuation in series [3] (ethanol 5% by weight) and 18.7 μg/actuation in series [3] (ethanol 10% by weight). Also, the MMAD in series [3] (ethanol 0% by weight) worked out at 5.0 μm; in series [3] (ethanol 2% by weight), 5.4 μm; in series [3] (ethanol 5% by weight), 2.4 μm; in series [3] (ethanol 10% by weight) it was 2.1 μm.

As to `C[C@@H]1C[C@H]2[C@@H]3CCC4=CC(=O)C=C[C@]4(C)[C@@]3(Cl)[C@@H](O)C[C@]2(C)[C@@]1(OC(=O)c1ccco1)C(=O)CCl` [mometasone furoate], the Mean mometasone solubility in series [4] (ethanol 0% by weight) was found to be 0.8 µg/mL; in series [4] (ethanol 1% by weight) it was 7.6 µg/mL. The figures for the Saturated solubility in series [5] (ethanol 0%) and in series [5] (ethanol 2%) were 0.8 µg/mL and 7.6 µg/mL, respectively.

On to salbutamol sulfate, for which the Fine particle fraction in series [6] (ethanol 5.0%) was 38%; in series [6] (ethanol 15%) it was 20%. In addition, the “FPF (fine particle fraction)” value in series [7] (ethanol 0% by weight) worked out at 57.5%; in series [7] (ethanol 2% by weight), 48.5%; in series [7] (ethanol 5% by weight) it was 39.1%; in series [7] (ethanol 10% by weight), 27.6%; in series [7] (ethanol 15% by weight), 19.6%. Moreover, the “FPM (fine particle mass)” value in series [7] (ethanol 0% by weight) was 45.3 μg/act; in series [7] (ethanol 2% by weight), 45.9 μg/act; in series [7] (ethanol 5% by weight) it was 36.8 μg/act; in series [7] (ethanol 10% by weight), 25.4 μg/act; in series [7] (ethanol 15% by weight), 18.5 μg/act. Also, the “MMAD (median mass aerodynamic diameter)” value in series [7] (ethanol 0% by weight) is 1.9 μm; in series [7] (ethanol 2% by weight), 2.0 μm; in series [7] (ethanol 5% by weight), 1.9 μm; in series [7] (ethanol 10% by weight), 2.0 μm; in series [7] (ethanol 15% by weight) it was 2.0 μm.

The term solubility denotes the dissolved amount per volume that the medium holds.

(Values after patent US20260102344A1, “METERED DOSE INHALERS AND SUSPENSION COMPOSITIONS” (Kindeva Drug Delivery L.P., priority 2021, published 2026).)
